Measurements published in patent US20220340597A1, “HEXAHYDRO-1H-PYRAZINO[1,2-A]PYRAZINE COMPOUNDS FOR THE TREATMENT OF AUTOIMMUNE DISEASE” (Hoffmann-La Roche Inc., priority 2019, published 2022).

Columns and labels:
[1] = molecular target: T1, human TLR7 (Homo sapiens, UniProt Q9NYK1); test: HEK293-Blue-hTLR-7 cells assay; format: cell-based; conditions: HEK293-Blue-hTLR7 cells, R848 stimulation, 20 hrs, SEAP reporter; read-out: HEK/hTLR7 IC50
T1 construct: host or cells: HEK293 (HEK-Blue hTLR7)
T1 sequence (Q9NYK1 27-1049): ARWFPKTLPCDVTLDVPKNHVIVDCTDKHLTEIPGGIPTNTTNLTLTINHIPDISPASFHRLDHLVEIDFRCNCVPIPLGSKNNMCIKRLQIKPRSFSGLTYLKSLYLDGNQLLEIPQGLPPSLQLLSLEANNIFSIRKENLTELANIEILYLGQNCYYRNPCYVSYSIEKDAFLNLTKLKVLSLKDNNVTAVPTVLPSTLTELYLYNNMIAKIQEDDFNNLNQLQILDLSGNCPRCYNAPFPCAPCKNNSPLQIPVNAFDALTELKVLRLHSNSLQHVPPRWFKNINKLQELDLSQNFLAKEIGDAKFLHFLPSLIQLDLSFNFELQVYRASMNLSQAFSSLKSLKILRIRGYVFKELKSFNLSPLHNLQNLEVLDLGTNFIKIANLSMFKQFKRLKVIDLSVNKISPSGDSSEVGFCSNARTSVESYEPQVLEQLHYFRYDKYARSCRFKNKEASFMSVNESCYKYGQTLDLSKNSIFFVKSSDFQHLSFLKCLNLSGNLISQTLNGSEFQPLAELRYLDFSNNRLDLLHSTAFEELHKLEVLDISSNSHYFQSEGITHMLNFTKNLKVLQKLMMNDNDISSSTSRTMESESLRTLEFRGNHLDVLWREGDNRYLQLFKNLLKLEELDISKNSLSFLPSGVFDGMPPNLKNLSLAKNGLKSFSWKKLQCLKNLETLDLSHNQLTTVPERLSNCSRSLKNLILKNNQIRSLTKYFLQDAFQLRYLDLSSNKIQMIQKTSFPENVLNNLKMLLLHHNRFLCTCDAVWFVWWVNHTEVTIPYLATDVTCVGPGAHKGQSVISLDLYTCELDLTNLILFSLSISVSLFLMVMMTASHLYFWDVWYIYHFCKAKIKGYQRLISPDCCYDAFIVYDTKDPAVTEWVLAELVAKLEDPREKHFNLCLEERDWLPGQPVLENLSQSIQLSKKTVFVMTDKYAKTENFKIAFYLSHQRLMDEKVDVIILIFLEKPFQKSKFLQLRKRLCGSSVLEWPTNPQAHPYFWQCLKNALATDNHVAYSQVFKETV

[2] = molecular target: T2, human TLR8 (Homo sapiens, UniProt Q9NR97); test: HEK293-Blue-hTLR-8 cells assay
T2 sequence (Q9NR97 27-1041): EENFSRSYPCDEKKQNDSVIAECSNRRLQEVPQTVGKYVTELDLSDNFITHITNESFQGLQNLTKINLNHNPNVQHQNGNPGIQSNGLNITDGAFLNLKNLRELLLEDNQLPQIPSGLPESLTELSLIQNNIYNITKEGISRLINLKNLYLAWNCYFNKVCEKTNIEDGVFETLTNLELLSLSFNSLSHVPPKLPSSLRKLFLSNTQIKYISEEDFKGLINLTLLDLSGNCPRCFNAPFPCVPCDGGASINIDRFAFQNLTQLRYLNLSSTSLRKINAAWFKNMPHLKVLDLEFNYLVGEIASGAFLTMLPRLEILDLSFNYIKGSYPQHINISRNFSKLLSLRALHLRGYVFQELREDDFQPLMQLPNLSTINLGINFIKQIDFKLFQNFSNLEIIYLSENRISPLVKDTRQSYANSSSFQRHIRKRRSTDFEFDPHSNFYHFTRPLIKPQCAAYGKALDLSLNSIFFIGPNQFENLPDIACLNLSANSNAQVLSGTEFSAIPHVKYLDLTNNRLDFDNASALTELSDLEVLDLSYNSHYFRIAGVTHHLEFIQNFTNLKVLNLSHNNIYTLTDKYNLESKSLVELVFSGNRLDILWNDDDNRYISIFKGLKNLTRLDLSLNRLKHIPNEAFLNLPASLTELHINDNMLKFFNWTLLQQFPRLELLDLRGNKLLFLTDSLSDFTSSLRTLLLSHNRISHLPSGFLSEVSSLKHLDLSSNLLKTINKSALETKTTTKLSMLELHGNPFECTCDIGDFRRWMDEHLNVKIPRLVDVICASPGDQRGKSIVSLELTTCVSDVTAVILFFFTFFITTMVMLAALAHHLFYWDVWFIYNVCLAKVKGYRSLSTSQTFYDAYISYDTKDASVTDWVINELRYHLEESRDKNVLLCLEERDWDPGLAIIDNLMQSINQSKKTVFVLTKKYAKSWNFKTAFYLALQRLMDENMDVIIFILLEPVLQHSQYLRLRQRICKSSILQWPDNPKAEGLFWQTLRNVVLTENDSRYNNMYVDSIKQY
Procedure: The following tests were carried out in order to determine the activity of the compounds of formula (I) and (Ia) in HEK293-Blue-hTLR-7/8/9 cells assay.
HEK293-Blue-hTLR-8 Cells Assay:
A stable HEK293-Blue-hTLR-8 cell line was purchased from InvivoGen (Cat. #: hkb-htlr8, San Diego, Calif., USA). These cells were originally designed for studying the stimulation of human TLR8 by monitoring the activation of NF-κB. A SEAP (secreted embryonic alkaline phosphatase) reporter gene was placed under the control of the IFN-β minimal promoter fused to five NF-κB and AP-1-binding sites. The SEAP was induced by activating NF-κB and AP-1 via stimulating HEK-Blue hTLR8 cells with TLR8 ligands. Therefore, the reporter expression was declined by TLR8 antagonist under the stimulation of a ligand, such as R848, for incubation of 20 hrs. The cell culture supernatant SEAP reporter activity was determined using QUANTI-Blue™ kit (Cat. #: rep-qb1, Invivogen, San Diego, Calif., USA) at a wavelength of 640 nm, a detection medium that turns purple or blue in the presence of alkaline phosphatase.

Structure (SMILES) | IC50 [1] [nM] | IC50 [2] [nM]
[2H]c1ccc2c(N3C[C@@H]4CN(c5ccc(CN6C[C@@H](N)[C@H](OC)C6)c(C)n5)CCN4[C@@H](C)C3)ccc(C#N)c2n1 [Example 123, 5-[(4S,9aR)-8-[5-[[(3R,4R)-3-amino-4-methoxy-pyrrolidin-1-yl]methyl]-6-methyl-2-pyridyl]-4-methyl-3,4,6,7,9,9a-hexahydro-1H-pyrazino[1,2-a]pyrazin-2-yl]-2-deuterio-quinoline-8-carbonitrile] | 27 | 6
C[C@@H]1CN(c2ccc(C#N)c3ncccc23)C[C@@H]2CN(Cc3cncc(N4CCNCC4)c3)CCN21 [Example 57, 5-[(4R,9aS)-4-methyl-8-[(5-piperazin-1-yl-3-pyridyl)methyl]-3,4,6,7,9,9a-hexahydro-1H-pyrazino[1,2-a]pyrazin-2-yl]quinoline-8-carbonitrile] | 23 | 22
C[C@@H]1CN(c2ccc(C#N)c3ncccc23)C[C@@H]2CN(c3ccnc(N4CCNCC4)n3)CCN21 [Example 33, 5-[(4R,9aR)-4-methyl-8-(2-piperazin-1-ylpyrimidin-4-yl)-3,4,6,7,9,9a-hexahydro-1H-pyrazino[1,2-a]pyrazin-2-yl]quinoline-8-carbonitrile] | 10 | 8
C[C@@H]1CN(c2ccc(C#N)c3ncccc23)C[C@@H]2CN(c3ccnc(N4CC[C@@](C)(N)C4)c3)CCN21 [Example 105, 5-[(4R,9aS)-8-[2-[(3R)-3-amino-3-methyl-pyrrolidin-1-yl]-4-pyridyl]-4-methyl-3,4,6,7,9,9a-hexahydro-1H-pyrazino[1,2-a]pyrazin-2-yl]quinoline-8-carbonitrile] | 26 | 7
C[C@@H]1CN(c2ccc(C#N)c3ncccc23)C[C@@H]2CN(Cc3cccc(N4CCNCC4)n3)CCN21 [Example 27, 5-[(4R,9aS)-4-methyl-8-[(6-piperazin-1-yl-2-pyridyl)methyl]-3,4,6,7,9,9a-hexahydro-1H-pyrazino[1,2-a]pyrazin-2-yl]quinoline-8-carbonitrile] | 21 | 13
CO[C@@H]1CN(c2ccc(CCN3CCN4[C@@H](C3)CN(c3ccc(C#N)n5nccc35)C[C@H]4C)cc2)C[C@H]1N [Example 68, 4-[(4R,9aS)-8-[2-[4-[(3R,4R)-3-amino-4-methoxy-pyrrolidin-1-yl]phenyl]ethyl]-4-methyl-3,4,6,7,9,9a-hexahydro-1H-pyrazino[1,2-a]pyrazin-2-yl]pyrazolo[1,5-a]pyridine-7-carbonitrile] | 53 | 77
